Type in all cases: in vivo, human
Series [1] relates to condyloma on cervix, low risk HPV in the 6/11 category. Kind of series: Treatment of condyloma and HPV infection with 0.25% A-007 gel (case report). The protocol: They also had atypical squamous epithelium and CIN with warts. The cervix was inflamed with squamous exo-cervical dysplasia and a warty labial growth. They were treated with 2 grams per day of 0.25% A-007 gel applied to the vagina for five days, for a total topical dose of 10 grams. […] The HPV infection was also eliminated, and was absent after 24 months of observation.

For another series, the system named is plantar warts. Description: Treatment of plantar warts with A-007 0.25% gel (case report). From the text:
Prior attempts at local surgical removal of the warts had failed. […] A-007 was applied in a 0.25% gel (2 g) nightly for three nights and covered with an absorbent pad to allow maximum penetration.

Series [2] has as its system cervical warts, CIN II, high risk HPV infection. Description: Treatment of cervical warts, CIN II and high risk HPV infection with 0.25% gel (case report). The protocol: A person had multiple abnormal pap smears with hair loss and skin changes secondary to hormonal imbalance. […] They were treated with 2 grams per day of 0.25% gel applied to the vagina for five days, for a total topical dose of 10 grams.

Consider `O=[N+]([O-])c1ccc(NN=C(c2ccc(O)cc2)c2ccc(O)cc2)c([N+](=O)[O-])c1` [A-007, 4,4′-dihydroxybenzophenone-2,4-dinitrophenylhydrazone], for which, in series [1] (2 grams per day of 0.25% A-007 gel, vagina, five days), the “external warty mass (labial growth)” value is on record as “fell off the labia”. Besides, the “HPV infection at follow-up” value in series [1] (after 24 months of observation) is recorded as “absent”. Besides, the HPV infection status result in series [1] (low risk HPV 6/11 at baseline, 2 grams per day of 0.25% A-007 gel, vagina, five days) was “eliminated”; in series [2] (high risk HPV at baseline, 2 grams per day of 0.25% gel, vagina, five days), “converted to low grade”. Moreover, the cervical condyloma result in series [1] (person, 2 grams per day of 0.25% A-007 gel applied to the vagina for five days, total 10 grams) was “disappeared”. Besides, in the series with plantar warts (0.25% gel (2 g) nightly for three nights, after 7 days), the “appearance of treated area” value is on record as “new skin appeared which was soft with no area of induration”. Besides, in the series with plantar warts (after two months of follow-up observation), the “recurrence of warts and induration” value was “Neither the warts nor induration returned”. Moreover, the “time until treated area began peeling and new skin appeared” value in the series with plantar warts (person, left foot, 0.25% gel (2 g) nightly for three nights under absorbent pad) was 7 days. Also, the “warty lesions on cervix” value in series [2] (2 grams per day of 0.25% gel, vagina, five days) is “disappeared”. The CIN outcome in series [2] (CIN II, 2 grams per day of 0.25% gel, vagina, five days) is listed as “resolved”. Besides, in series [2] (after 18 months of observation), the status at follow-up entry is “stable”. The toxicities result in series [2] (person, 2 grams per day of 0.25% gel applied to the vagina for five days, total 10 grams) is given as “No toxicities were observed”.

Values taken from US20090247641A1, “HYDRAZONE AGENTS TO TREAT CUTANEOUS LESIONS” (priority 2005, published 2009).
